# Results from publication PMC10144134, “Characterization of Potent ABCG2 Inhibitor Derived from Chromone: From the Mechanism of Inhibition to Human Extracellular Vesicles for Drug Delivery” (Pharmaceutics, 2023).
# “Also recorded” adds a separate entry of the source.
# How the values were obtained:
# [1] = molecular target: T1, ABCG2 (Homo sapiens, UniProt Q9UNQ0); experiment: Cell-based transport assay by flow cytometry, HEK293-ABCG2; set-up: expressed in transfected cells; host or cells: HEK293 (stably transfected, G418 selection; gift of Dr. Attilio Di Pietro)
# T1 sequence (Q9UNQ0 1-655): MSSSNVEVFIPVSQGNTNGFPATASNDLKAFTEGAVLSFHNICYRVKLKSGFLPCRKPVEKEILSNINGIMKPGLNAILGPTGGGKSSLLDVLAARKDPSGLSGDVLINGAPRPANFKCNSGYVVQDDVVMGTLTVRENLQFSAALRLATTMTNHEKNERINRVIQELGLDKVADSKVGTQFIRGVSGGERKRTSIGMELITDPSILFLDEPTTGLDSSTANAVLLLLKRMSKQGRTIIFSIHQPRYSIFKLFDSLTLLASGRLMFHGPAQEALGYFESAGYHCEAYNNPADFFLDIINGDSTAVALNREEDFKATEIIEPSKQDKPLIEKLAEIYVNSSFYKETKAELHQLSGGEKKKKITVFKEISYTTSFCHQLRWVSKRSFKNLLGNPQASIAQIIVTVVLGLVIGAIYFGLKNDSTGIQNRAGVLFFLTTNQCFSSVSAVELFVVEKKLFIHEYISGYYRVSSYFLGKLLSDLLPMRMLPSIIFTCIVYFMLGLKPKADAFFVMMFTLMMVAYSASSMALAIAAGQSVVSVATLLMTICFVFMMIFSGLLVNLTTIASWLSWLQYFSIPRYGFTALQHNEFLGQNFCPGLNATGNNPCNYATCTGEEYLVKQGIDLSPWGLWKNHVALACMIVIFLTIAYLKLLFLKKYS
# Description: Cell lines (HEK293-ABCG, NIH3T3-ABCB1 and BHK21-ABCC1) were kept at 37 °C in the presence of 5% CO2 in DMEM high glucose (Gibco, Sao Paulo, Brazil) supplemented with 10% Fetal Bovine Serum (Gibco, Sao Paulo, Brazil) and 1% antibiotic (penicillin/streptomycin–Hyclone Laboratories, Logan, UT, USA). The stably transfected cells were kept with specific selection agent for each ABC transporter: ABCG2–G418 0.75 mg/mL, P-gp–Colchicine 60 ng/mL, MRP1–Methotrexate 0.1 mg/mL. The cells HEK293-ABCG2, NIH3T3-ABCB1 and BHK21-ABCC1, overexpressing ABCG2, P-gp and MRP1, respectively, were kindly provided by Dr. Attilio Di Pietro (IBCP, Lyon, France).
# Cells were seeded into 24-well plates at a density of 1 × 10^5 cells/well and incubated for 48 h at 37 °C and 5% of CO2. When the confluence reached 90–95%, the medium was removed and the cells were exposed to inhibitors and substrates for 30 min at 37 °C. Then, the cell monolayer was washed with PBS at 37 °C, trypsinized and resuspended with 300 µL of cold PBS. The intracellular fluorescence was recorded by flow cytometry (FACS Calibur–Becton Dickinson, San Diego, CA, USA). At least 10,000 events were acquired. […] The inhibition percent was calculated as follows: % of inhibition = ((C − S))/((I − S)) × 100, where “C” represents the treatment with substrate + compound in test, “S” represents the treatment with substrate alone and “I” represents the treatment with substrate + reference inhibitor.
# This study was approved by the Ethics Committee of SCS/UFPR (CAAE 51428521.2.0000.0102). Human blood (9 mL) was collected in tubes containing 8 mM of EGTA and centrifuged at 425× g for 10 min at room temperature. Human plasma (~4 mL) was separated in a new tube. In the tube containing blood cells (~5 mL), the same volume of RPMI (~5 mL) was added. The material was homogenized and centrifuged at 425× g for 10 min at room temperature. The supernatant was discarded, and the pellet of cells was centrifuged again at 425× g for 10 min, then, the supernatant was discarded, and the pellet was suspended in 5 mL of RPMI containing 2 mM of CaCl2. After 1 h of incubation at 37 °C, the material was centrifuged at 425× g for 10 min at 10 °C. Additionally, the tube containing the human plasma was also centrifuged at 425× g for 10 min at 10 °C. The supernatant from both tubes (human cells and plasma) was centrifuged at 4000 g for 10 min at 10 °C. The supernatant was separated and centrifuged at […] for 120 min at 10 °C. The supernatant was discarded and the pellet containing the vesicles was suspended in 60 µL of PBS. The protein concentration was quantified by Bradford assay. For each condition, 10 µL of the vesicles in PBS was diluted by adding 190 µL of PBS. […]
# [2] = molecular target: T1, ABCG2; experiment: Thermostabilization assay on ATPase activity of ABCG2; type: biochemical; set-up: expressed in transfected cells; host or cells: HEK293 (stably transfected, G418 selection; gift of Dr. Attilio Di Pietro); conditions: C4a 10 μM
# Description: The thermal stability assay was performed according to previous reports. […] To evaluate the effect of C4a over thermal stability, each sample was prepared with 12.5 mM MgCl2 or 6.25 mM ATP and incubated at a temperature ranging from 37 to 71 °C for 10 min using a thermocycler C1000 Touch (Bio-Rad, Hercules, CA, USA). After incubation, 10 µL of 25 mM ATP or 50 mM MgCl2 (5 and 10 mM final concentration, respectively) was added and incubated at 37 °C/20 min to allow ATP hydrolysis. The reaction was stopped with the addition of 50 µL of Pi reagent containing 1% ammonium molybdate, 2.5 N H2SO4 and 0.014% potassium-antimony tartrate. To evaluate the absorbance, the samples were transferred to a 96-well plate (50 µL/well), then 150 µL of 0.33% sodium ascorbate solution was added. The absorbance was measured after 10 min incubation at room temperature using the microplate reader Spectramax iD3 (Molecular Devices, San Jose, CA, USA). The sensitive activity to vanadate (Vi) was calculated as the difference between the activity in the absence of Vi minus the activity in the presence of Vi at each temperature.
smiles,measurement,setting,value
"COc1ccc2[nH]cc(CCNC(=O)c3cc(=O)c4c(OCc5ccccc5Br)cccc4o3)c2c1 [C4a, chromone 4a]",inhibition of bodipy-prazosin efflux mediated by ABCG2,"[1]; 10 µM, bodipy-prazosin 0.2 µM",inhibited the efflux of all
same,inhibition of mitoxantrone efflux mediated by ABCG2,"[1]; 10 µM, mitoxantrone 10 µM, HEK293-ABCG2",completely inhibited; also recorded: inhibited the efflux of all
same,inhibition of pheophorbide-a efflux mediated by ABCG2,"[1]; 10 µM, pheophorbide a 10 µM",inhibited the efflux of all
same,inhibition of ABCG2 by supernatant (human EV preparation),"[1]; C4a free in supernatant, even at lower concentration tested 0.1 µM",strongly inhibited ABCG2
same,effect on thermal stability of ABCG2,[2],mild effect
same,"IT50, ABCG2 -ATP",[2]; absence of ATP,50.01 ± 0.26 ºC
same,"IT50 (temperature that reduces 50% of the ATPase activity), ABCG2 +ATP",[2]; presence of ATP,55.44 ± 0.25 ºC
